Values of other authors as cited in patent US5773459A, “Urea- and thiourea-type compounds” (Sugen, Inc., priority 1995, dated 1998).

Experiments:
[1] = test system: IGF-1R protein tyrosine kinase; conditions: Sepp-Lorenzino et al., Abstract, 1994; cited from earlier work
[2] = test system: human breast cancer cells; conditions: Sepp-Lorenzino et al., Abstract, 1994; cited from earlier work

**Q.** With `CO[C@H]1[C@@H](OC)C[C@H](C)[C@@H](OC)C2=CC(=O)C=C(NC(=O)/C(C)=C/C=C\[C@H](OC)[C@@H](OC(N)=O)/C(C)=C/[C@@H]1C)C2=O` [Herbimycin A] as the compound, how does the “inhibition of the IGF-1R protein tyrosine kinase” value [1] read?
**A.** inhibit

**Q.** And the “inhibition of cellular proliferation in human breast cancer cells” value [2]?
**A.** inhibit
